Results published in patent US20080146538A1, “Compounds 614” (priority 2006, published 2008).
pIC50: −log10 of the molar value. Where a name gives a salt, the structure may show the parent alone.

Key:
human NK1 receptor = biological target: T1, human NK1 receptor (Homo sapiens, UniProt P25103); assay: FLIPR assay, inhibition of human NK1 receptor activation (intracellular Ca2+); type: cell-based
T1 construct: Human NK1 receptor cDNA (obtained from RNA-PCR from lung tissue) was subcloned into pRcCMV (Invitrogen); expressed in transfected cells
Protocol: (§1) Chinese Hamster Ovary (CHO) K1 cells (obtained from ATCC) were stably transfected with the human NK2 receptor (hNK2R cDNA in pRc/CMV, Invitrogen) or the human NK3 receptor (hNK3R in pcDNA 3.1/Hygro (+)/IRES/CD8, Invitrogen vector modified at AstraZeneca EST-Bio UK, Alderley Park). The cells were transfected with the cationic lipid reagent LIPOFECTAMINE™ (Invitrogen) and selection was performed with Geneticin (G418, Invitrogen) at 1 mg/ml for the hNK2R transfected cells and with Hygromycin (Invitrogen) at 500 μg/ml for the hNK3R transfected cells. Single cell clones were collected by aid of Fluorescence Activated Cell Sorter (FACS), tested for functionality in a FLIPR assay (see below), expanded in culture and cryopreserved for future use. […]
(§2) The activity of a compound of the invention to inhibit NK1/NK2/NK3 receptor activation measured as NK1/NK2/NK3 receptor mediated increase in intracellular Ca^2+ was assessed by the following procedure:
(§3) CHO cells stably transfected with human NK1, NK2 or NK3 receptors were plated in black walled/clear bottomed 96-well plates (Costar 3904) at 3.5×10^4 cells per well and grown for approximately 24 h in normal growth media in a 37° C. […] The response was measured as the peak relative fluorescence after agonist addition and IC50s were calculated from ten-point concentration-response curves for each compound. […]

human NK2 receptor = biological target: T2, human NK2 receptor (Homo sapiens, UniProt P21452); assay: FLIPR assay, inhibition of human NK2 receptor activation (intracellular Ca2+); type: cell-based
T2 construct: expressed in transfected cells
T2 sequence (P21452 1-398): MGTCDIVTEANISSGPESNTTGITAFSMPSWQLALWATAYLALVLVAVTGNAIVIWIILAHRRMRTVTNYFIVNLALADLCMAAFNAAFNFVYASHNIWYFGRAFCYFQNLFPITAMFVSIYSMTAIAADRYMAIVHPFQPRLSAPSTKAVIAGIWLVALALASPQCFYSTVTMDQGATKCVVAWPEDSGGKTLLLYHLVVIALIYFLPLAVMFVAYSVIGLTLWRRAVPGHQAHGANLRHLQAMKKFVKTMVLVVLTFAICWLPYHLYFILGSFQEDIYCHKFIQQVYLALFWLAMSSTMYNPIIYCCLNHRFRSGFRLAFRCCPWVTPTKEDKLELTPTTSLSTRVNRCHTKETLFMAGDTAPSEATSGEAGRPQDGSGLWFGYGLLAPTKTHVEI
Protocol: as §1, §2, §3

human NK3 receptor = biological target: T3, human NK3 receptor (Homo sapiens, UniProt P29371); assay: FLIPR assay, inhibition of human NK3 receptor activation (intracellular Ca2+); type: cell-based
T3 construct: expressed in transfected cells
T3 sequence (P29371 1-465): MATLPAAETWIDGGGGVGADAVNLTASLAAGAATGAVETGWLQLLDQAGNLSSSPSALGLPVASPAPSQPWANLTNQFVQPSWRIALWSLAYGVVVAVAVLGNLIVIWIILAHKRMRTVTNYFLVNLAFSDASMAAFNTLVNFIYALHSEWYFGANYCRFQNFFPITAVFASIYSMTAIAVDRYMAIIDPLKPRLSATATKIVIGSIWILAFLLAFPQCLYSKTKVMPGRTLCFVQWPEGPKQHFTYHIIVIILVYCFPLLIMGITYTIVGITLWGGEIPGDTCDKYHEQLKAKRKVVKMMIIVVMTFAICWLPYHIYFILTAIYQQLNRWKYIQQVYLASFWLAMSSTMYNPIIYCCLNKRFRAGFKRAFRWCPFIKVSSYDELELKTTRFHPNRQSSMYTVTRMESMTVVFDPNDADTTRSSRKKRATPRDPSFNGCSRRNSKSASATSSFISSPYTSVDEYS
Protocol: as §1, §2, §3

[1] = biological target: hERG-encoded potassium channel (Homo sapiens, UniProt Q12809); assay: Activity against hERG (planar-array-based voltage clamp); type: cell-based
Description: The activity of compounds according to formula I against the hERG-encoded potassium channel can be determined according to Kiss L, et al. Assay Drug Dev Technol. 1 (2003), 127-35: “High throughput ion-channel pharmacology: planar-array-based voltage clamp”.

[2] = Metabolic stability in liver microsomes (intrinsic clearance); type: in vitro ADME; details: human, pH 7.4, HLM
Protocol: The metabolic stability of compounds according to formula I can be determined as described below: The rate of biotransformation can be measured as either metabolite(s) formation or the rate of disappearance of the parent compound. The experimental design involves incubation of low concentrations of substrate (usually 1.0 μM) with liver microsomes (usually 0.5 mg/ml) and taking out aliquotes at varying time points (usually 0, 5, 10, 15, 20, 30, 40 min.). The test compound is usually dissolved in DMSO. The DMSO concentration in the incubation mixture is usually 0.1% or less since more solvent can drastically reduce the activities of some CYP450s. Incubations are done in 100 mM potassium phosphate buffer, pH 7.4 and at 37° C. Acetonitrile or methanol is used to stop the reaction. The parent compound is analysed by HPLC-MS. From the calculated half-life, t1/2, the intrinsic clearance, Clint, is estimated by taking microsomal protein concentration and liver weight is into account.

T1 sequence (P25103 whole entry): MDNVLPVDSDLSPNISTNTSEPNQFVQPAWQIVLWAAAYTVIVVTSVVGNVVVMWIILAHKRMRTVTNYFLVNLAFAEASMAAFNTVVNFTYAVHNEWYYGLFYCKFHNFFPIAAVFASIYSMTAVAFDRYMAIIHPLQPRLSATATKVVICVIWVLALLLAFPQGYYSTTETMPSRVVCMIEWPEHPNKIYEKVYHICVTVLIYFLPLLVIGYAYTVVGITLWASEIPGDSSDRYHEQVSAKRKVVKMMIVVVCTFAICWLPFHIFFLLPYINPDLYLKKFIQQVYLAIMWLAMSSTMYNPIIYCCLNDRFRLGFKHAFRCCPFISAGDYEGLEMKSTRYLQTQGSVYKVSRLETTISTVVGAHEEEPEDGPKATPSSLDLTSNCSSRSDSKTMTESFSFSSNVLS
hERG-encoded potassium channel, sequence (Q12809 whole entry): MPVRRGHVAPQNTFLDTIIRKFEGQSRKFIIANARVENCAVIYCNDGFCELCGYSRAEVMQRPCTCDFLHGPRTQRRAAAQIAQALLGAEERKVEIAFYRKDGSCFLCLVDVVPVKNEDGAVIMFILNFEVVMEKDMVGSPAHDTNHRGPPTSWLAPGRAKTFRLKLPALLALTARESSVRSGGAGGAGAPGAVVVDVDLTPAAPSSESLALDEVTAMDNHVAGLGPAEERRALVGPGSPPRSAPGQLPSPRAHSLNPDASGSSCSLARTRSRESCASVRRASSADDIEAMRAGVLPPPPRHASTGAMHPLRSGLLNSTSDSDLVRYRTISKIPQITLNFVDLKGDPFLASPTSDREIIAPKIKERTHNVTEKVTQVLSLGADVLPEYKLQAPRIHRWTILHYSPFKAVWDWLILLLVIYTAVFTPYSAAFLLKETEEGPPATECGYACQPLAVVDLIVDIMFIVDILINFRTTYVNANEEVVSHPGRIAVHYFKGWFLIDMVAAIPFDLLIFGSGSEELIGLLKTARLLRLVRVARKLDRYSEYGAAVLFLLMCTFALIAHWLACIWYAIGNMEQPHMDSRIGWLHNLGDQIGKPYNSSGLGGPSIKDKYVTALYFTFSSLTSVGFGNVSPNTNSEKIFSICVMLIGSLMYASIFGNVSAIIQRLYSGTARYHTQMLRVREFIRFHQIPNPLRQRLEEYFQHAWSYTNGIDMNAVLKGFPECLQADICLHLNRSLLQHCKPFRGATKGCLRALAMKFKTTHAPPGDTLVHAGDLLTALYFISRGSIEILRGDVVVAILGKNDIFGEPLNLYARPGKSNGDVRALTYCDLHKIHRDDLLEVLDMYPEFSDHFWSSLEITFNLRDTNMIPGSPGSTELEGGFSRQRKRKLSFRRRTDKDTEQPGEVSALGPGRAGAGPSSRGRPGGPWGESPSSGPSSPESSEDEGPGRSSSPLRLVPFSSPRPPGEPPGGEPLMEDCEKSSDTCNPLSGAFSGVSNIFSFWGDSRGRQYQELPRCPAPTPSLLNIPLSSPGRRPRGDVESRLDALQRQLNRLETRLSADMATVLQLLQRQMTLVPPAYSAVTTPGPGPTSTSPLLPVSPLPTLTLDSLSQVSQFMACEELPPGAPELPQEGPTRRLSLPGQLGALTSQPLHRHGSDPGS

CN(C[C@@H](CCN1CC(N2[C@@H]3CC[C@H]2CC(O)C3)C1)c1ccc(F)cc1)C(=O)c1cc(Br)cc(C(F)(F)F)c1 (stereo partly drawn) [Ex 1, exo-3-Bromo-N-((2S)-2-(4-fluorophenyl)-4-{3-(3-hydroxy-8-azabicyclo[3.2.1]oct-8-yl)azetidin-1-yl}butyl)-N-methyl-5-(trifluoromethyl)benzamide dihydrochloride]
Kb (human NK1 receptor): 7.94 nM | Kb (human NK2 receptor): 7.94 nM | Kb (human NK3 receptor): 12.6 nM | pIC50 [1]: 4.89 | microsomal CLint at 1 μM [2]: 28 µL/min/mg
